Source: article PMC3433414, “Oral Administration of the Pimelic Diphenylamide HDAC Inhibitor HDACi 4b Is Unsuitable for Chronic Inhibition of HDAC Activity in the CNS In Vivo” (PLoS ONE, 2012)

Legend:
R6/2^300Q mice = test system: R6/2^300Q mice; set-up: method as in PMID 18829438; settings: cited from earlier work
[1] = test system: diversity panel of 72 binding and 29 enzyme assays; assay: Cerep Diversity Profile, overall; settings: 10 µM, duplicate
Text: (§1) In addition to the HDAC profiling performed, we also queried 4b for any apparent potential off-target effects, which could complicate any finding of efficacy or adverse events in vivo due to ‘polypharmacy’. This was accomplished by screening against a ‘diversity panel’ of 72 binding and 29 enzyme assays, comprised of roughly equal numbers of selective central and peripheral therapeutically relevant targets (Cerep Diversity Profile). This panel included representative targets from diverse enzyme families, G protein coupled receptors, steroid nuclear receptors, voltage- and ligand-gated ion channels. While not totally inclusive, it is a useful tool for discovery compounds to assess their viability as proof of concept molecules to specifically query a particular target. 4b was initially screened at 10 µM in duplicate. The full set of results is provided as Table S1. […] This clean in vitro profile was considered acceptable to proceed to ADME and pharmacokinetic studies.

[2] = test system: P-glycoprotein (Pgp, MDR1); assay: Effective efflux ratio in MDR1-MDCK cells; type: in vitro ADME; settings: human, pH 7.4; MDCK overexpressing MDR1
Experimental: The MDR1-MDCKII and wild type MDCKII cell lines (obtained from SOLVO Biotechnology) were cultured in accordance with the guidelines provided by SOLVO Biotechnology. Both wild-type MDCK and MDR1-MDCK cells were seeded at a cell density of 2.3×10^5 cells/well into 24-well Transwell plates and cultured for three days to form monolayers. Test compound was loaded into the donor compartments of the Transwell plate (24-well) bearing MDR1-MDCK or wild type MDCK monolayers. Test compound was added to either the apical or basolateral chambers of the Transwell plate assembly at a concentration of 10 µM in Hanks’ Balanced Salt Solution containing 25 mM HEPES (pH 7.4). Lucifer Yellow was added to the apical buffer in all wells and its permeation monitored to assess integrity of the cell layer. […]
After 1 h incubation at 37°C, aliquots were taken from both chambers and added to acetonitrile containing analytical internal standard (carbamazepine) in a 96-well plate. Concentrations of compound in the samples were measured by LC-MS/MS. Concentrations of LY in the samples were measured using a fluorescence plate reader.
The apparent permeability (Papp) values of test compound were determined for both the apical to basal (A>B) and basal to apical (B>A) permeation and the efflux ratio (B>A: A>B) determined in both the wild type MDCK and MDR1-MDCK cells. […]

M (non‐selective) = assay: Cerep binding, antagonist radioligand; settings: 10 μM
Text: as §1

Na+ channel (site 2) = assay: Cerep binding, antagonist radioligand; settings: 10 μM
Text: as §1

NMDA = assay: Cerep binding, antagonist radioligand; settings: 10 μM
Text: as §1

PCP = assay: Cerep binding, antagonist radioligand; settings: 10 μM
Text: as §1

D1 (h) = target: T1, D1 (h) (Homo sapiens, UniProt P21728); assay: Cerep binding, antagonist radioligand; settings: read-out: % inhibition of control specific binding
T1 construct: purchased Cerep (Diversity Profile)
Text: as §1

opioid (non‐selective) = assay: Cerep binding, antagonist radioligand; settings: 10 μM
Text: as §1

KATP channel = assay: Cerep binding, antagonist radioligand; settings: 10 μM
Text: as §1

T1 sequence (P21728 whole entry): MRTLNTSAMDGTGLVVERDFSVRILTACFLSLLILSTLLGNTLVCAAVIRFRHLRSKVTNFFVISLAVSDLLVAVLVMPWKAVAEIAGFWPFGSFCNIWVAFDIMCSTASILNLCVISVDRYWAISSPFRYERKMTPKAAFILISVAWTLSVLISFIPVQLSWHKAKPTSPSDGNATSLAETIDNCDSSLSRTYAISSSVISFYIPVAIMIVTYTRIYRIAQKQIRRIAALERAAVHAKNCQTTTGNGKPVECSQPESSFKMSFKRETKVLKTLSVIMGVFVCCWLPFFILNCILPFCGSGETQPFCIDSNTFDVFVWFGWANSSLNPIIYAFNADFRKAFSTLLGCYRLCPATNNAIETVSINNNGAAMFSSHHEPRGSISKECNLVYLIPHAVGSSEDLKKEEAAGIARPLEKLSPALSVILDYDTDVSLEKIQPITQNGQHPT

Row | SMILES | gene expression abnormalities (R6/2^300Q mice; 150 mg/kg subcutaneous once daily for 3 days) | motor performance and appearance in chronic efficacy study (R6/2^300Q mice; drinking water, estimated 150 mg/kg/day, from 4 months of age) | off-target profile in the Cerep Diversity Profile [1] | efflux ratio at 1 h, 10 µM [2] | % inhibition of control specific binding (M (non‐selective)) | % inhibition of control specific binding (Na+ channel (site 2)) | % inhibition of control specific binding (NMDA) | % inhibition of control specific binding (PCP) | inhibition at 10 µM (D1 (h)) | % inhibition of control specific binding (opioid (non‐selective)) | % inhibition of control specific binding (KATP channel)
1 | Nc1ccccc1NC(=O)CCCCCC(=O)Nc1ccccc1 [Compound 4b] | successfully ameliorated gene expression abnormalities | improved motor performance | clean | 4.9 | 13% | 7% | 1% | 15% |  |  | 
2 | O=C(CCCCCc1nc2ccccc2[nH]1)Nc1ccccc1 [Compound C1, 6-(1-H-benzo[d]imidazol-2-yl)-N-phenylhexanamide] |  |  |  |  |  |  |  |  | 27% | 40% | 5%
